The source of these data is ChEMBL document CHEMBL1667798, “Synthesis of new isoxazoline-based acidic amino acids and investigation of their affinity and selectivity profile at ionotropic glutamate receptors” (Eur J Med Chem, 2011).

The term Ki denotes a dissociation constant, usually derived from enzyme kinetics or from competition with a known ligand.

Test [1] can be described thus: Displacement of [3H]AMPA from AMPA receptor in Sprague-Dawley rat brain synaptic membrane after 30 mins by scintillation counting.
The nature of test [2]: Displacement of [3H]KAIN from kainate receptor in Sprague-Dawley rat brain synaptic membrane after 60 mins by scintillation counting. (In general: In a radioligand displacement assay an active substance lowers the binding of a labelled ligand.)
Test [3] addresses Glutamate NMDA receptor. Briefly: Displacement of [3H]CPP from NMDA receptor in Sprague-Dawley rat brain synaptic membrane after 60 mins by scintillation counting.
The target in test [4] is Glutamate NMDA receptor. Briefly: Displacement of [3H]CGP 39653 from NMDA receptor in Sprague-Dawley rat brain synaptic membrane after 60 mins by scintillation counting.

Bounds are passed on as bounds.

`Cc1onc(C(=O)O)c1CC(N)C(=O)O` (racemic): the figures for the inhibition constant (Ki) in test [1], in test [2] and in test [3] were 0.02 µM, 6.3 µM and more than 100 µM, respectively.
Consider `C[C@@H]1ON=C(C(=O)O)[C@@H]1C[C@H](N)C(=O)O` (racemic), for which the inhibition constant (Ki) in test [4] was 18 µM; in test [1], more than 100 µM; in test [2], more than 100 µM.
As for `C[C@@H]1ON=C(C(=O)O)[C@@H]1C[C@@H](N)C(=O)O` (racemic), the inhibition constant (Ki) in test [4] is 60 µM; in test [1] it was more than 100 µM; in test [2], more than 100 µM.
Turning to `C[C@H]1C(C(=O)O)=NO[C@H]1C[C@@H](N)C(=O)O` (racemic), the values for the Ki in test [4], in test [1] and in test [2] were 3 µM, 4.1 µM and more than 100 µM, respectively.
Turning to `C[C@H]1C(C(=O)O)=NO[C@H]1C[C@H](N)C(=O)O` (racemic), the inhibition constant (Ki) in test [4] came to 5.1 µM; in test [1], 31 µM; in test [2] it was 56 µM.
`N[C@H](C[C@H]1CC(C(=O)O)=NO1)C(=O)O` (racemic): the inhibition constant (Ki) in test [4] was 0.21 µM; in test [1] it was more than 100 µM; in test [2], more than 100 µM.
Take `N[C@@H](C[C@H]1CC(C(=O)O)=NO1)C(=O)O` (racemic): the inhibition constant (Ki) in test [4] was 0.96 µM; in test [1], more than 100 µM; in test [2], more than 100 µM.
For the compound `N[C@@]1(C(=O)O)C[C@@H]2ON=C(C(=O)O)[C@@H]2C1` (racemic), the inhibition constant Ki in test [1] and in test [2] was more than 100 µM in each case.
